Columns and labels:
TPα = target: T1, TPα (Homo sapiens, UniProt P21731); test: U46619-induced [Ca2+]i mobilization in HEK.TPα cells; assay type: cell-based; conditions: for remaining activity at 1 µM: read-out: Percentage of Control, TPα, 1 μM; for remaining activity at 10 µM: read-out: Percentage of Control, TPα, 10 μM
T1 construct: expressed in transfected cells
T1 sequence (P21731 1-343): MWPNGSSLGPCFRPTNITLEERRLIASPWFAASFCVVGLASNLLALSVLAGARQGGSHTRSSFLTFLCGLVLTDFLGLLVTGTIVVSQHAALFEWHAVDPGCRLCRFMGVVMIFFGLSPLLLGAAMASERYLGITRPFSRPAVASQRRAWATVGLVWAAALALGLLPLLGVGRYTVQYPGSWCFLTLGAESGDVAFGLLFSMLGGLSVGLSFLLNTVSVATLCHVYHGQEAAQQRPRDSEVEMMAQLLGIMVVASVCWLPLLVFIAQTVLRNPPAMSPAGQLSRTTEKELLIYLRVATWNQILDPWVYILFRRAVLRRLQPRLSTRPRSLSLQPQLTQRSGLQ
Excerpt: (§1) An appropriate functional test for the evaluation of the agonistic and/or antagonistic potency of the compounds of the invention is the determination of calcium flux. Both TPα and TPβ are coupled to the G-protein Gαq. Therefore, stimulation of these receptors ultimately leads to a release of intracellular calcium ([Ca^2+]i) from intracellular stores. Consequently, the determination of [Ca^2+]i flux represents an appropriate functional test for the evaluation of the agonistic/antagonistic potency of compounds of the invention. Calcium can be measured using a molecule characterized by the covalent combination of a Ca^2+ chelating group and a fluorophore group. The Ca^2+ binding properties of these indicators are formed by the presence of a tetracarboxylic acid core as found for example in EGTA (Ethylene Glycol bis(2-aminoethyl)Tetraacetic Acid). Binding of Ca^2+ produces a wavelength shift in either the excitation or emission fluorescence spectra or a change in the emission intensity. Whereas the Ca^2+ binding to EGTA is pH dependent, recent dyes are designed from an EGTA derivative, BAPTA (1,2-Bis(2-Aminophenoxy)ethane-N,N,N′,N′-Tetraacetic Acid). Loading of these dyes inside cells commonly uses esterified forms (acetoxymethyl ester), which are able to cross the cell membranes and are subsequently hydrolyzed by esterases inside the cell.
(§2) Estimation of [Ca^2+]i flux is calculated from the fluorescence signal (F). For calibration, the maximal fluorescence (Fmax, Ca^2+-saturated form of the dye) as well as minimal fluorescence (Fmin, Ca^2+-free form of the dye) must be determined. These parameters are determined usually in situ after the experiment, for example by subsequent addition to the mixture of a cell-disrupting agent that releases all Ca^2+ such as Triton X100 and a potent Ca^2+-chelating agent such as EGTA. After subtraction of background fluorescence, [Ca^2+]; flux can be calculated for non-ratiometric indicators.
(§3) Intracellular [Ca^2+]; fluxes were measured using a fluorescence plate reader following a modified protocol of Kassack et al., ‘Quantitative comparison of functional screening by measuring intracellular Ca^2+ with radioligand binding at recombinant human dopamine receptors’, AAPS Pharmsci, 2002, 4(4); 102-111, in cell lines (e.g. HEK293 or other cell type) endogenously-expressing or over-expressing either TPα, TPβ or any other receptor or protein to be screened.
(§4) By way of example, HEK 293 cells which have been grown for 3-4 days in normal growth media (minimum essential media containing 10% FBS and 2 mmol/1 L-glutamine), under normal growth conditions (37° C., in humidified 5% CO2 atmosphere) are washed and harvested in KREBs-HEPES buffer (118 mM NaCl, 4.7 mM KCl, 1.2 mM MgSO4, 1.2 mM KH2PO4, 4.2 mM NaHCO3, 11.7 mM D-glucose, 1.3 mM CaCl2, 10 mM HEPES, pH 7.4). Cells are then incubated with 3 μM Fluo-4 in KREBs-HEPES buffer containing 1% Pluoronic F-127, for 1 hr at 25° C. with agitation. Then, cells are washed in KREBs-HEPES buffer containing 0.5% BSA and re-suspended at a final concentration of 3×10^5 cells/ml. Approx. 5.4×10^4 cells per well are plated in a 96-well plate and pre-incubated with test compounds for 10 m prior to measuring the fluorescence intensity at 520 nm for 25 seconds at 1 s intervals to monitor baseline using the Fluoroskan Ascent. Agonist (e.g., 1 μM U46619) is injected into separate wells by the automatic pipettor and fluorescence intensity is monitored at 520 nm for 75 seconds at 1 s intervals. Thereafter, Triton X100 and EGTA are added sequentially where Fmax refers to maximal fluorescence intensity measured after permeabilization of the cells with 2% Triton X100 and Fmin refers to fluorescence intensity measured after addition of 1 mM EGTA.
(§5) The dye Fluo-4 has its excitation peak at 480 nm, in the visible spectra, which spare cells to be damaged by UV (340-360 nm) stimulation and reduces auto-fluorescence of cells. […]

TPβ = target: T2, TPβ (Homo sapiens, UniProt P21731); test: U46619-induced [Ca2+]i mobilization in HEK.TPβ cells; assay type: cell-based; conditions: 1 μM U46619; for remaining activity at 1 µM: read-out: Percentage of Control, TPβ, 1 μM; for remaining activity at 10 µM: read-out: Percentage of Control, TPβ, 10 μM
T2 construct: expressed in transfected cells
T2 sequence (P21731 1-407 isoform P21731-2): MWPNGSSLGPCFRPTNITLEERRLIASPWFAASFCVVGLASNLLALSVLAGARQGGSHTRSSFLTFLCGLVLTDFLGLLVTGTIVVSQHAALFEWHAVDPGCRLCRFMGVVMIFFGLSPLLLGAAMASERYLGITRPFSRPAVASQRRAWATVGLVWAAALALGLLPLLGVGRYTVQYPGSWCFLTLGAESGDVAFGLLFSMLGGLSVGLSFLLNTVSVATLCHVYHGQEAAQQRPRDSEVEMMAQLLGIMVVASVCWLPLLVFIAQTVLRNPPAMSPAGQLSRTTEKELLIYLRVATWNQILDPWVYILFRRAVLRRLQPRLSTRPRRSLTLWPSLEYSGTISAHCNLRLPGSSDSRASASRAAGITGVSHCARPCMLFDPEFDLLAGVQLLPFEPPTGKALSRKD
Excerpt: as §1, §2, §3, §4, §5

[1] = antagonist 1 μM, 1 μM U46619, % of agonist-induced response in vehicle-treated cells
[2] = antagonist 10 μM, 1 μM U46619, % of agonist-induced response in vehicle-treated cells
[3] = antagonist 1 μM, % of agonist-induced response in vehicle-treated cells
[4] = antagonist 10 μM, % of agonist-induced response in vehicle-treated cells

Compound	remaining activity at 1 µM (TPα; [1]) [%]	remaining activity at 10 µM (TPα; [2]) [%]	remaining activity at 1 µM (TPβ; [3]) [%]	remaining activity at 10 µM (TPβ; [4]) [%]	other results
COc1ccc(-c2cccc(Oc3ccc(C(=O)NC4COC4)cc3S(=O)(=O)NC(=O)NC(C)(C)C)c2)cc1 [NTP12]	99.7 ± 2.13	77.9 ± 2.69	84.2 ± 7.51	34.4 ± 2.85	
COc1ccc(-c2cccc(Oc3ccc(C(=O)N4CCC4)cc3S(=O)(=O)NC(=O)NC(C)(C)C)c2)cc1 [NTP17]	83.1 ± 4.85	59.5 ± 4.07	51.1 ± 1.13	13.3 ± 5.91	
COc1ccc(-c2cccc(Oc3ccc(Br)cc3S(=O)(=O)NC(=O)NC(C)(C)C)c2)cc1 [NTP7, 5-bromo-N-(tert-butylcarbamoyl)-2-((4′-methoxy-[1,1′-biphenyl]-3-yl)oxy)benzenesulfonamide]	61.5 ± 7.7	32.5 ± 3.95	49 ± 4.41	12.2 ± 1.93	activity class in HEK.TPβ cells (TPβ; antagonist 1 μM): ACTIVE
COc1ccc(-c2cccc(Oc3ccc(Cl)cc3S(=O)(=O)NC(=O)NC(C)(C)C)c2)cc1 [NTP30, N-(tert-butylcarbamoyl)-5-chloro-2-((4′-methoxy-[1,1′-biphenyl]-3-yl)oxy)benzenesulfonamide]	52.2 ± 3.9	23.3 ± 3.63	46.5 ± 5.86	9.31 ± 1.57	activity class in HEK.TPβ cells (TPβ; antagonist 1 μM): ACTIVE
CCNC(=O)c1ccc(Oc2cccc(-c3ccc(OC)cc3)c2)c(S(=O)(=O)NC(=O)NC(C)(C)C)c1 [NTP28]	108 ± 7.64	89.5 ± 10.3	110 ± 1.85	62.3 ± 4.3	
COc1ccc(-c2cccc(Oc3ccc(C(=O)NCCN(C)C)cc3S(=O)(=O)NC(=O)NC(C)(C)C)c2)cc1 [NTP15]	79.8 ± 8.81	52.6 ± 8.42	87.6 ± 8.28	86.1 ± 5.64	
COc1ccc(-c2cccc(Oc3ccc(F)cc3S(=O)(=O)NC(=O)NC(C)(C)C)c2)cc1 [NTP8, N-(tert-butylcarbamoyl)-5-fluoro-2-((4′-methoxy-[1,1′-biphenyl]-3-yl)oxy)benzene-sulfonamide]	68 ± 5.05	49.9 ± 6.91	59.4 ± 1.85	14.6 ± 2.72	activity class in HEK.TPβ cells (TPβ; antagonist 1 μM): ACTIVE
COc1ccc(-c2cccc(Oc3ccc(-c4ccoc4)cc3S(=O)(=O)NC(=O)NC(C)(C)C)c2)cc1 [NTP20]	72.4 ± 5.97	55.7 ± 5.84	42.5 ± 2.32	18.5 ± 3.53	
COc1ccc(-c2cccc(Oc3ccc(C(=O)O)cc3S(=O)(=O)NC(=O)NC(C)(C)C)c2)cc1 [NTP5, 3-(N-(tert-butylcarbamoyl)sulfamoyl)-4-((4′-methoxy-[1,1′-biphenyl]-3-yl)oxy)benzoic acid]	98.7 ± 9.29	61.7 ± 1.42	88.3 ± 5.27	72 ± 3.87	
COc1ccc(-c2cccc(Oc3ccc(C(N)=O)cc3S(=O)(=O)NC(=O)NC(C)(C)C)c2)cc1 [NTP13]	93.8 ± 13.9	95.2 ± 9.57	74 ± 3.66	36.2 ± 0.52	
COc1ccc(-c2cccc(Oc3cc(C)c(C#N)cc3S(=O)(=O)NC(=O)NC(C)(C)C)c2)cc1 [NTP32, N-(tert-butylcarbamoyl)-5-cyano-2-((4′-methoxy-[1,1′-biphenyl]-3-yl)oxy)-4-methyl benzenesulfonamide]					Percentage of Control, TPα, 1 μM (TPα; [1]): 80.3 ± 4.21%; Percentage of Control, TPα, 10 μM (TPα; [2]): 69.3 ± 2.07%; Percentage of Control, TPβ, 1 μM (TPβ; [3]): 93.6 ± 4.06%; Percentage of Control, TPβ, 10 μM (TPβ; [4]): 46.2 ± 4.83%
COc1ccc(-c2cccc(Oc3ccc(C(=O)N4CC(O)C4)cc3S(=O)(=O)NC(=O)NC(C)(C)C)c2)cc1 [NTP23, N-(tert-butylcarbamoyl)-5-(3-hydroxyazetidine-1-carbonyl)-2-((4′-methoxy-[1,1′-biphenyl]-3-yl)oxy)benzenesulfonamide]	64.2 ± 2.89	49.9 ± 7.61	48.4 ± 2.75	20.4 ± 1.94	
COc1ccc(-c2cccc(Oc3ccc(-c4ccco4)cc3S(=O)(=O)NC(=O)NC(C)(C)C)c2)cc1 [NTP21]	78.3 ± 8.28	66.4 ± 4.95	51 ± 1.62	32.2 ± 2.89	
CC(C)(C)NC(=O)NS(=O)(=O)c1cc([N+](=O)[O-])ccc1Oc1cccc(I)c1 [XXXVIII, 2-(3-Iodophenoxy)-5-nitrobenzene(t-butyl)sulfonyl urea]					IC50 (TPα; HEK.TPα cells, 1 μM U46619, Table 2, read-out: IC50 data for U46619-mediated [Ca2+]i mobilization, TPα): 4.01 µM; TPα:TPβ Selectivity Ratio (TPα; IC50 TPα/IC50 TPβ): 2; IC50 (TPβ; HEK.TPβ cells, Table 2, read-out: IC50 data for U46619-mediated [Ca2+]i mobilization, TPβ): 1.99 µM
COCCNC(=O)c1ccc(Oc2cccc(-c3ccc(OC)cc3)c2)c(S(=O)(=O)NC(=O)NC(C)(C)C)c1 [NTP14]	83.5 ± 9.26	89.1 ± 9.1	86.4 ± 7.06	59.4 ± 7.67	
COc1ccc(-c2cccc(Oc3ccc(-c4cn[nH]c4)cc3S(=O)(=O)NC(=O)NC(C)(C)C)c2)cc1 [NTP18]	93.4 ± 6.17	73.6 ± 2.98	45 ± 4.34	22.6 ± 2.28	
CNC(=O)c1ccc(Oc2cccc(-c3ccc(OC)cc3)c2)c(S(=O)(=O)NC(=O)NC(C)(C)C)c1 [NTP10]	95.5 ± 4.25	69.8 ± 1.73	96 ± 0.94	54.7 ± 8.1	

Reference: patent US9718781B2, “Methods and compounds for treating proliferative disorders and viral infections” (University College Dublin, National University of Ireland, …, priority 2012, dated 2017)
